Test in all cases: relative viability (nuclei count vs DMSO), 5 days (fraction); higher = more cells survive
Compound in the experiment “Crenolanib + AZD7762”: CC1(COc2ccc3c(c2)ncn3-c2ccc3cccc(N4CCC(N)CC4)c3n2)COC1 [Crenolanib] + NC(=O)Nc1cc(-c2cccc(F)c2)sc1C(=O)N[C@H]1CCCNC1 [AZD7762] (partner 0.2 µM)
An outline of the steps: (§1)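 Each reported value is a median over duplicate plates. It expresses relative viability: treated-well nuclei count divided by vehicle-well nuclei count. Lung cancer cell lines in 1536-well plates were dosed by pin tool a day after seeding, alone with one drug or with a fixed anchor-drug dose plus five library-drug doses (not always all listed) in √10 steps, and nuclei were counted after 5 days.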

Compound in the experiment “Tivantinib + Foretinib”: O=C1NC(=O)[C@@H](c2cn3c4c(cccc24)CCC3)[C@@H]1c1c[nH]c2ccccc12 [Tivantinib] + COc1cc2c(Oc3ccc(NC(=O)C4(C(=O)Nc5ccc(F)cc5)CC4)cc3F)ccnc2cc1OCCCN1CCOCC1 [Foretinib] (partner 0.25 µM)
A digest of the protocol: as §1

Compound in the experiment “Tivantinib + Crizotinib”: O=C1NC(=O)[C@@H](c2cn3c4c(cccc24)CCC3)[C@@H]1c1c[nH]c2ccccc12 [Tivantinib] + C[C@@H](Oc1cc(-c2cnn(C3CCNCC3)c2)cnc1N)c1c(Cl)ccc(F)c1Cl [Crizotinib] (partner 1 µM)
A digest of the protocol: as §1

Compound in the experiment “Crenolanib + Olaparib”: CC1(COc2ccc3c(c2)ncn3-c2ccc3cccc(N4CCC(N)CC4)c3n2)COC1 [Crenolanib] + O=C(c1cc(Cc2n[nH]c(=O)c3ccccc23)ccc1F)N1CCN(C(=O)C2CC2)CC1 [Olaparib] (partner 8 µM)
An outline of the steps: as §1

In the supplement of paper PMC10307832 one finds relative viability data, which are given here for 4 cell lines.

Consider HCC-827, for which the relative viability amounted to 0.276 with Crenolanib + AZD7762 (first compound 0.01 µM); 0.212 with Crenolanib + AZD7762 (first compound 0.03162 µM); 0.2 with Crenolanib + AZD7762 (first compound 0.1 µM); 0.189 with Crenolanib + AZD7762 (first compound 0.3162 µM); 0.218 with Crenolanib + AZD7762 (first compound 1 µM); 1.01 with Tivantinib + Foretinib (first compound 0.01 µM). Besides, the relative viability in the experiment with Tivantinib + Foretinib (first compound 0.03162 µM) is 1.12; in the experiment with Tivantinib + Foretinib (first compound 0.1 µM), 0.957; with Tivantinib + Foretinib (first compound 0.3162 µM), 0.485; with Tivantinib + Crizotinib (first compound 0.01 µM) it was 0.92; in the experiment with Tivantinib + Crizotinib (first compound 0.03162 µM) it was 1.01; in the experiment with Tivantinib + Crizotinib (first compound 0.1 µM), 0.91. For the same cell line, the relative viability with Tivantinib + Crizotinib (first compound 0.3162 µM) was found to be 0.779; in the experiment with Crenolanib + Olaparib (first compound 0.01 µM) it was 0.702; in the experiment with Crenolanib + Olaparib (first compound 0.03162 µM) it was 0.659; in the experiment with Crenolanib + Olaparib (first compound 0.1 µM) it was 0.655; with Crenolanib + Olaparib (first compound 0.3162 µM) it was 0.634; with Crenolanib + Olaparib (first compound 1 µM) it was 0.677.

On to HOP-62, for which the relative viability in the experiment with Crenolanib + AZD7762 (first compound 0.01 µM) turned out to be 0.618; with Crenolanib + AZD7762 (first compound 0.03162 µM), 0.709; in the experiment with Crenolanib + AZD7762 (first compound 0.1 µM), 0.668; with Crenolanib + AZD7762 (first compound 0.3162 µM) it was 1.1; in the experiment with Crenolanib + AZD7762 (first compound 1 µM), 0.75; with Tivantinib + Foretinib (first compound 0.01 µM), 1.17. Moreover, the relative viability came out at 1.02 with Tivantinib + Foretinib (first compound 0.03162 µM); 1.06 in the experiment with Tivantinib + Foretinib (first compound 0.1 µM); 1.14 with Tivantinib + Foretinib (first compound 0.3162 µM); 0.828 with Tivantinib + Crizotinib (first compound 0.01 µM); 0.972 in the experiment with Tivantinib + Crizotinib (first compound 0.1 µM); 1.03 with Tivantinib + Crizotinib (first compound 0.3162 µM). The relative viability came to 0.398 in the experiment with Crenolanib + Olaparib (first compound 0.01 µM); 0.192 in the experiment with Crenolanib + Olaparib (first compound 0.03162 µM); 0.45 with Crenolanib + Olaparib (first compound 0.1 µM); 0.387 with Crenolanib + Olaparib (first compound 0.3162 µM); 0.33 in the experiment with Crenolanib + Olaparib (first compound 1 µM).

As to LC-2-ad, the relative viability turned out to be 0.892 in the experiment with Crenolanib + AZD7762 (first compound 0.01 µM); 0.898 with Crenolanib + AZD7762 (first compound 0.03162 µM); 0.777 with Crenolanib + AZD7762 (first compound 0.1 µM); 0.908 with Crenolanib + AZD7762 (first compound 0.3162 µM); 0.821 with Crenolanib + AZD7762 (first compound 1 µM); 0.849 with Tivantinib + Foretinib (first compound 0.01 µM). Moreover, the relative viability with Tivantinib + Foretinib (first compound 0.03162 µM) is 0.924; with Tivantinib + Foretinib (first compound 0.1 µM) it was 0.85; with Tivantinib + Foretinib (first compound 0.3162 µM) it was 0.597; with Tivantinib + Crizotinib (first compound 0.01 µM), 0.515; with Tivantinib + Crizotinib (first compound 0.03162 µM) it was 0.411; with Tivantinib + Crizotinib (first compound 0.1 µM), 0.501. Besides, the relative viability in the experiment with Tivantinib + Crizotinib (first compound 0.3162 µM) stood at 0.411; in the experiment with Crenolanib + Olaparib (first compound 0.01 µM), 0.65; in the experiment with Crenolanib + Olaparib (first compound 0.03162 µM), 0.704; with Crenolanib + Olaparib (first compound 0.1 µM), 0.728; in the experiment with Crenolanib + Olaparib (first compound 0.3162 µM), 0.74; with Crenolanib + Olaparib (first compound 1 µM), 0.65.

For the cell line LCLC-97TM1, the relative viability with Crenolanib + AZD7762 (first compound 0.01 µM) came out at 0.316; with Crenolanib + AZD7762 (first compound 0.03162 µM), 0.219; in the experiment with Crenolanib + AZD7762 (first compound 0.1 µM) it was 0.41; with Crenolanib + AZD7762 (first compound 0.3162 µM) it was 0.561; with Crenolanib + AZD7762 (first compound 1 µM) it was 0.277; with Tivantinib + Foretinib (first compound 0.01 µM), 0.993. The relative viability in the experiment with Tivantinib + Foretinib (first compound 0.03162 µM) worked out at 0.928; with Tivantinib + Foretinib (first compound 0.1 µM), 0.911; in the experiment with Tivantinib + Foretinib (first compound 0.3162 µM) it was 0.888; with Tivantinib + Crizotinib (first compound 0.01 µM) it was 0.451; with Tivantinib + Crizotinib (first compound 0.03162 µM), 0.305; in the experiment with Tivantinib + Crizotinib (first compound 0.1 µM), 0.38. Also, the relative viability with Tivantinib + Crizotinib (first compound 0.3162 µM) is 0.318; with Crenolanib + Olaparib (first compound 0.01 µM), 0.395; in the experiment with Crenolanib + Olaparib (first compound 0.03162 µM), 0.53; in the experiment with Crenolanib + Olaparib (first compound 0.1 µM), 0.383; with Crenolanib + Olaparib (first compound 0.3162 µM), 0.42; in the experiment with Crenolanib + Olaparib (first compound 1 µM), 0.412.
